From publication PMC12475274, “Harnessing indole scaffolds to identify small-molecule IRE1α inhibitors modulating XBP1 mRNA splicing” (Nature Communications, 2025)
Values joined by “and” are separate entries in the source; they are usually repeats but may differ in a detail not shown here. Equal values may be shown once.

Experiments:
IRE1α = details: Fig. 1b; read-out: IC50 of reported IRE1α inhibitor; cited from earlier work
[1] = molecular target: T1, p-IRE1α dimerization and oligomerization (Homo sapiens, UniProt O75460); assay: DSS cross-linking assay with mass photometry; details: 100 μM compound, DSS crosslinking
T1 construct: Human IRE1α kinase and RNase domain (residues 547–977) was subcloned into pLIB plasmid; His tag (with TEV cleavage site) (N, cleaved yes); made in house; host or cells: Sf9 insect cells, baculovirus (Bac-to-Bac)
Method: Phosphorylated IRE1α (p-IRE1α) and compounds were incubated 30 min at room temperature, with a final concentration of 2 μM p-IRE1α and 100 μM of the indicated compound, in a buffer containing 20 mM HEPES, pH 7.5, 50 mM KOAc, 1 mM MgOAc2, 1 mM DTT, 0.05% v/v TritonX-100, in a total reaction volume of 20 μL. After incubation, DSS (disuccinimidyl suberate, Thermo Fisher, A39267) was added to the reaction at a final concentration of 250 μM to induce crosslinking at room temperature for 1 h. Tris (pH 7.5) was added to a final concentration of 50 mM to stop the reaction. Samples were further measured with a mass photometry instrument (Refeyn Ltd). The PBS buffer was used for the mass photometry measurement. The instrument was calibrated with BSA and TG protein mixture in PBS. Samples were diluted to a protein concentration of 100 nM with buffer before measurement. Then, 18 μL PBS buffer was added to the center of the gasket on the coverslips to check and find the focus. Afterward, 2 μL of the diluted sample was added, mixed, and measured. Data were analyzed using Discover MP software, for each sample, results from 3 individual measurements were merged.

[2] = molecular target: T2, dephosphorylated IRE1α (547–977) (Homo sapiens, UniProt O75460); assay: FRET-based IRE1α RNase activity assay, dephosphorylated IRE1α; assay type: biochemical
T2 construct: Human IRE1α kinase and RNase domain (residues 547–977) was subcloned into pLIB plasmid; His tag (with TEV cleavage site) (N, cleaved yes); made in house; host or cells: Sf9 insect cells, baculovirus (Bac-to-Bac)
Method in brief: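 Inhibition came from the linear-phase cleavage rate of 100 nM XBP1-sequence FAM/BHQ1 RNA, monitored at 485/535 nm over one hour and fitted to IC50. Enzyme: 40 nM unphosphorylated IRE1α kinase-RNase domain (547–977), exposed to compound for 30 min at room temperature before substrate, in HEPES pH 7.5 buffer.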

[3] = molecular target: T3, phosphorylated IRE1α (p-IRE1α) (Homo sapiens, UniProt O75460); assay: FRET-based IRE1α RNase activity assay, phosphorylated IRE1α; assay type: biochemical
T3 construct: Human IRE1α kinase and RNase domain (residues 547–977) was subcloned into pLIB plasmid; His tag (with TEV cleavage site) (N, cleaved yes); made in house; host or cells: Sf9 insect cells, baculovirus (Bac-to-Bac)
Method in brief: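 Cleavage of a dual-labeled XBP1 RNA (200 nM) was followed kinetically over 1 h at room temperature at 485/535 nm, with initial slopes giving percent inhibition and IC50. Enzyme was 4 nM phosphorylated human IRE1α 547–977 from insect cells, incubated with compound for 30 min before substrate; buffer 20 mM HEPES pH 7.5, KOAc, MgOAc2, DTT, Triton X-100.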

[4] = system: IRE1α transcription level in HT-29 cells; assay: RT-qPCR of IRE1α transcription level, HT-29; assay type: cell-based, human; details: HT-29
Method: (§1) A549 cells, HCT 116 cells, and HT-29 cells were collected and seeded in 6-well plates at a density of 5 × 10^5 cells per well and cultured overnight to attach, then treated with compound or DMSO for 2 h, then 0.5 μg/mL final concentration of tunicamycin (Tm, MP Biomedi, 0215002805) were added to induce the ER stress for 2 h. After treatment, total RNA was purified using an RNeasy mini kit (Qiagen, 74106). 500 ng of total RNA was used for reverse transcription using the High-Capacity cDNA Reverse Transcription Kits (Thermo Fisher, 4368814). cDNA was diluted 1: 5 using RNase-free water, and 1 μL CDNA was used for each qPCR reaction. The qPCR was performed using PowerUp™ SYBR™ Green Master Mix (Thermo Fisher, A25742) with 10 µL reaction volume using Bio-Rad CFX96 Real-Time PCR Detection System following the standard cycling mode (primer Tm ≥ 60 °C) on the manufacturer’s protocol. Data was analyzed using the 2^- ΔΔCt method. The primers used are listed in Supplementary Table S3. The inhibition % was calculated by using the equation: inhibition% = 100× (normalized Tm control - normalized of the sample)/(normalized Tm control - normalized DMSO control). Tm control: Cells treated with tunicamycin; DMSO control: Cells treated with DMSO only.

[5] = system: XBP1 mRNA splicing in A549 cells; assay: RT-qPCR of ER stress-induced XBP1 mRNA splicing, A549; assay type: cell-based, human; details: Fig. 7c, 0.5μg/mL Tm, individual replicates
Method: as §1

[6] = system: XBP1 mRNA splicing in HCT 116 cells; assay: RT-qPCR of ER stress-induced XBP1 mRNA splicing, HCT 116; assay type: cell-based, human; details: HCT116
Method: as §1

[7] = system: XBP1 mRNA splicing in HT-29 cells; assay: RT-qPCR of ER stress-induced XBP1 mRNA splicing, HT-29; assay type: cell-based, human; details: HT-29
Method: as §1

[8] = system: IRE1α transcription level in HCT 116 cells; assay: RT-qPCR of IRE1α transcription level, HCT 116; assay type: cell-based, human; details: HCT116
Method: as §1

[9] = system: IRE1α transcription level in A549 cells; assay: RT-qPCR of IRE1α transcription level, A549; assay type: cell-based, human; details: A549
Method: as §1

T1 sequence (O75460 547-977): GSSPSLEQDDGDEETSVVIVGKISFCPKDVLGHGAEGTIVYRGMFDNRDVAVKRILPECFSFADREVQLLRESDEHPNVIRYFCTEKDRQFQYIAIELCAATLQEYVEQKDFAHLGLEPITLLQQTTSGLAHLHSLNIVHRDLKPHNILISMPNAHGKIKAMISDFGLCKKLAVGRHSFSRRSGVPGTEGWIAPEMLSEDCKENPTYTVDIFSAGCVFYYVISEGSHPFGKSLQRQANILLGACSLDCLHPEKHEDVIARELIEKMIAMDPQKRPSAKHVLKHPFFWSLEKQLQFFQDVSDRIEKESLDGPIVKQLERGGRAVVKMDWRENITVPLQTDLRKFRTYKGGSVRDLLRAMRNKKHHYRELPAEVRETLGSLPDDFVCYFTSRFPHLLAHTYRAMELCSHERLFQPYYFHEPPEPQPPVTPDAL
T2 sequence (O75460 547-977): as above
T3 sequence (O75460 547-977): as above

Structure (SMILES): COCCOCCc1c(C)c2cc(OC)c(O)c(C=O)c2oc1=O [MCK9989]
- IC50 (IRE1α): 290 nM

Structure (SMILES): Cc1cc(=O)oc2c(C=O)c(O)ccc12 [Compound 4μ8c]
- IC50 (IRE1α): 76 nM

Structure (SMILES): CC1(c2nc(-c3ccc(NC(=O)Nc4cccc(F)c4)c4ccccc34)c3c(N)nccn23)CC1 [KIRA7]
- IC50 (IRE1α): 110 nM

Structure (SMILES): CN[C@@H]1C[C@H]2O[C@@](C)([C@@H]1OC)n1c3ccccc3c3c4c(c5c6ccccc6n2c5c31)C(=O)NC4 [STS, staurosporine, reference compound]
- effect on p-IRE1α dimerization/oligomerization [1]: did not affect the dimerization and oligomerization
- effect on IRE1α RNase activity in the FRET assay [2]: activated the RNase activity
- effect on p-IRE1α RNase activity in the FRET assay [3]: did not affect the RNase activity

Structure (SMILES): Cc1ccc(C)c(NC(=O)NC(C)CCc2ccc(O)cc2)c1 (stereo not drawn) [Compound Z4P]
- IC50 (IRE1α): 3140 nM

Structure (SMILES): COc1cc2c(C)c(CC(=O)N3CCOCC3)c(=O)oc2c(C=O)c1O [MCK8866]
- IC50 (IRE1α): 390 nM

Structure (SMILES): CN1CCC(CNc2cc(Cl)nn3c(-c4cc5nc(Nc6ccccc6)[nH]c5cc4F)cnc23)CC1 [Compound 31]
- IC50 (IRE1α): 80 nM

Structure (SMILES): O=S(=O)(N=Cc1c(O)ccc2ccccc12)c1cccs1 [STF-083010]
- IC50 (IRE1α): 25000 nM

Structure (SMILES): CCOC(=O)CCc1c(C)n(C(=O)c2ccccc2)c2ccc(Br)cc12 [IA105]
- Relative IRE1α/Actin ([4]; 0.003 μM): 1.012 and 1.008 and 1.050 and 0.980
- Relative IRE1α/Actin ([4]; 0.009 μM): 0.917 and 0.954 and 1.053 and 0.909
- Relative IRE1α/Actin ([4]; 0.027 μM): 1.104 and 0.811 and 1.025 and 1.043
- Relative IRE1α/Actin ([4]; 0.082 μM): 0.794 and 0.825 and 1.037 and 0.844
- Relative IRE1α/Actin ([4]; 0.247 μM): 0.885 and 0.861 and 0.831 and 0.823
- Relative IRE1α/Actin ([4]; 0.741 μM): 0.783 and 0.766 and 0.908 and 0.750
- Relative IRE1α/Actin ([4]; 2.22 μM): 0.956 and 0.812 and 1.017 and 0.944
- Relative IRE1α/Actin ([4]; 6.67 μM): 0.712 and 0.683 and 0.754 and 0.735
- Relative IRE1α/Actin ([4]; 20 μM): 1.089 and 1.044 and 0.863 and 0.952
- Relative XBP1s/Actin ([5]; 0.009 μM): 2.671 and 2.32 and 2.971 and 2.381
- Relative XBP1s/Actin ([5]; 0.027 μM): 2.362 and 2.303 and 2.482 and 2.4563
- Relative XBP1s/Actin ([5]; 0.082 μM): 2.039 and 2.057 and 2.192 and 2.023
- Relative XBP1s/Actin ([5]; 0.247 μM): 1.808 and 1.675 and 1.769 and 1.486
- Relative XBP1s/Actin ([5]; 0.741 μM): 1.216 and 1.256 and 1.279 and 1.145
- Relative XBP1s/Actin ([5]; 2.22 μM): 1.073 and 0.792 and 1.044 and 0.8663
- Relative XBP1s/Actin ([5]; 6.67 μM): 1.0995 and 1.154 and 1.208 and 1.113
- Relative XBP1s/Actin ([5]; 20 μM): 1.054 and 1.019 and 1.028 and 0.9077
- Relative XBP1s/Actin ([6]; 0.009 μM): 5.428 and 5.195 and 5.7981 and 4.548
- Relative XBP1s/Actin ([6]; 0.027 μM): 5.989 and 4.76 and 5.372 and 4.813
- Relative XBP1s/Actin ([6]; 0.082 μM): 5.025 and 4.655 and 4.826 and 4.338
- Relative XBP1s/Actin ([6]; 0.247 μM): 4.351 and 4.263 and 4.713 and 3.571
- Relative XBP1s/Actin ([6]; 0.741 μM): 2.654 and 2.493 and 2.725 and 2.232
- Relative XBP1s/Actin ([6]; 2.22 μM): 1.206 and 0.9713 and 1.3073 and 1.15
- Relative XBP1s/Actin ([6]; 6.67 μM): 1.256 and 1.21 and 1.297 and 1.076
- Relative XBP1s/Actin ([6]; 20 μM): 1.065 and 0.9931 and 0.9536 and 0.8918
- Relative XBP1s/Actin ([7]; 0.003 μM): 11.684 and 10.815 and 12.821 and 10.854
- Relative XBP1s/Actin ([7]; 0.009 μM): 11.469 and 10.431 and 11.317 and 10.144
- Relative XBP1s/Actin ([7]; 0.027 μM): 12.267 and 11.074 and 12.013 and 10.900
- Relative XBP1s/Actin ([7]; 0.082 μM): 8.652 and 8.438 and 8.782 and 8.518
- Relative XBP1s/Actin ([7]; 0.247 μM): 4.629 and 4.592 and 4.962 and 3.379
- Relative XBP1s/Actin ([7]; 0.741 μM): 1.283 and 1.309 and 1.516 and 1.277
- Relative XBP1s/Actin ([7]; 2.22 μM): 1.103 and 1.024 and 1.015 and 0.976
- Relative XBP1s/Actin ([7]; 6.67 μM): 0.958 and 0.872 and 0.904 and 0.841
- Relative XBP1s/Actin ([7]; 20 μM): 1.096 and 1.163 and 1.053 and 0.889
- Relative IRE1α/Actin ([8]; 0.009 μM): 0.982 and 0.954 and 1.279 and 1.057
- Relative IRE1α/Actin ([8]; 0.027 μM): 1.271 and 1.075 and 1.281 and 1.112
- Relative IRE1α/Actin ([8]; 0.082 μM): 0.845 and 0.871 and 0.924 and 0.835
- Relative IRE1α/Actin ([8]; 0.247 μM): 0.966 and 1.085 and 1.076 and 0.890
- Relative IRE1α/Actin ([8]; 0.741 μM): 0.990 and 1.042 and 1.123 and 0.879
- Relative IRE1α/Actin ([8]; 2.22 μM): 1.133 and 1.010 and 1.231 and 1.072
- Relative IRE1α/Actin ([8]; 6.67 μM): 1.059 and 0.972 and 1.144 and 0.971
- Relative IRE1α/Actin ([8]; 20 μM): 1.034 and 0.915 and 0.978 and 0.882
- Relative IRE1α/Actin ([9]; 0.009 μM): 1.097 and 0.928 and 1.209 and 0.916
- Relative IRE1α/Actin ([9]; 0.027 μM): 1.090 and 0.987 and 1.064 and 0.939
- Relative IRE1α/Actin ([9]; 0.082 μM): 1.050 and 1.155 and 1.127 and 1.034
- Relative IRE1α/Actin ([9]; 0.247 μM): 1.053 and 1.161 and 1.037 and 0.961
- Relative IRE1α/Actin ([9]; 0.741 μM): 0.957 and 1.053 and 0.856 and 0.910
- Relative IRE1α/Actin ([9]; 2.22 μM): 1.022 and 0.873 and 1.063 and 1.025
- Relative IRE1α/Actin ([9]; 6.67 μM): 0.890 and 0.939 and 0.992 and 0.722
- Relative IRE1α/Actin ([9]; 20 μM): 1.131 and 1.096 and 0.934 and 0.949
